The conditions of data set [1]: cited from earlier work.
The nature of data set [2]: Degradation of clavulanate on thermal infusion. Format: physicochemical.
The conditions of data set [3]: cited from earlier work. This is another data set of the same source.

The source of these data is patent US5690959A, “Pharmaceutical thermal infusion process” (priority 1993, dated 1997).

The structures appear in SMILES notation. Where a name gives a salt, the structure may show the parent alone.

`CN/C(=N/CCSCc1nc[nH]c1C)NC#N` [Cimetidine, N"-cyano-N-methyl-N'-[2-[[(5-methyl-1-H-imidazol-4-yl)methyl]thio]-ethyl]-guanidine]: the solubility in water entry in data set [1] is reported as “moderately soluble in water”.
Regarding `O=C(O)[C@H]1/C(=C/CO)O[C@@H]2CC(=O)N21` [clavulanate], the degradation of clavulanate entry in data set [2] (more appropriate thermal infusion temperature) is reported as “eliminates the degradation”; in data set [2] (thermal infusion at the more extreme temperatures), “minimal degree of degradation”. In addition, in data set [1], the solubility in water result is “highly water soluble”.
Turning to `O=C(O)[C@H]1/C(=C/CO)O[C@@H]2CC(=O)N21` [salts of clavulanic acid, Z-(3R,5R)-2-(β-hydroxyethyldiene) clavam-3-carboxylate], the hydrolytic degradation entry in data set [3] (contacted by water) is listed as “undergo spontaneous hydrolytic degradation when contacted by water”. For the same compound, the spontaneous exothermic reaction entry in data set [3] (transport in bulk) was “undergo a spontaneous exothermic reaction with the release of large quantities of gas and fumes”. In addition, in data set [1], the solubility in water result was “freely water soluble”.
